Measurements from patent US12521381B2, “Anticoccidial agent and method for using the same” (NIHON NOHYAKU CO., LTD., priority 2020, dated 2026).

System: chicken coccidium (Eimeria tenella)
Assay: Evaluation test of growth inhibition on chicken coccidium (Eimeria tenella)
Assay type: cell-based
Conditions: 48 h, mammal cells infected with sporozoite of chicken coccidium, indirect immunofluorescence, read-out: EC50 (inhibition of growth of chicken coccidium to a mature schizont)
Method: Test Example 1: Evaluation Test of Growth Inhibition on Chicken Coccidium (Eimeria tenella) Each of the benzimidazole compounds represented by General Formula (1) or salts of the compounds according to the present invention was diluted with a regulating liquid to a predetermined concentration and placed in a microtiter plate. To the dilution in the plate, mammal cells infected with a sporozoite of chicken coccidium were incubated. Forty-eight hours later, the degree of inhibition on growth of chicken coccidium to a mature schizont was examined by an indirect immunofluorescence technique, and EC50 was determined by calculation.

## FC(F)(F)C(F)(F)COc1ccc(-c2nc3cc(Br)c(Br)cc3[nH]2)cn1 [Compound 11-5, 5,6-dibromo-2-(6-(2,2,3,3,3-pentafluoropropoxy)pyrid-3-yl)benzimidazole]
  EC50: ≤ 20 µM
